US8178530B2, “Imidazolopyrazine compounds useful for the treatment of degenerative and inflammatory diseases” (Janssen Pharmaceutica NV, priority 2006, dated 2012)

Legend:
MMP1 expression by SFs = assay: 'MMP assay': MMP1 expression by 'complex trigger' activated synovial fibroblasts (MMP1 ELISA); type: cell-based, human; details: RASFs, 48 hrs
MAPKAPK5 = biological target: T1, MAPKAPK5 (Homo sapiens, UniProt Q8IW41); assay: MAPKAP-K5 assay (FlashPlate, 33P-ATP); type: biochemical; details: 0.6 μM ATP, 30 minutes at room temperature
T1 construct: 1 mU MAPKAP-K5
T1 sequence (Q8IW41 1-473): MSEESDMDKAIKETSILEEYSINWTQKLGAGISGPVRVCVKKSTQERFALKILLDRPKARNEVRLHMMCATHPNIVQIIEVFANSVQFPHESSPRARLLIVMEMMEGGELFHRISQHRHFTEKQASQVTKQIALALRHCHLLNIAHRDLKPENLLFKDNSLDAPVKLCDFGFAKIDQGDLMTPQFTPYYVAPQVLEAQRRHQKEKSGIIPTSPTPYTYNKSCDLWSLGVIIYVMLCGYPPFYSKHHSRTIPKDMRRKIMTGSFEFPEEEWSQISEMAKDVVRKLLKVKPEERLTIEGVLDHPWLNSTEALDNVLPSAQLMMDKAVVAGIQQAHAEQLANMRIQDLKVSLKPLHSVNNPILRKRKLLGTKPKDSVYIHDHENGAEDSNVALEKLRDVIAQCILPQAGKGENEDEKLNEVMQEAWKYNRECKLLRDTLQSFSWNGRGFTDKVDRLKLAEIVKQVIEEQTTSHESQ
Experimental: 3 μM MAPKAP-K5 peptide substrate

Compound | IC50 (MAPKAPK5) [nM] | EC50 (MMP1 expression by SFs; Homo sapiens, Fibroblast) [nM] | EC50 (MMP1 expression by SFs) [nM]
CN(C)C(CNC(=O)c1ccc(Nc2ncc(-c3cc[nH]c(=O)c3)n3ccnc23)cc1)c1cccnc1 (centres unmarked) [Compound 114] | 101 to 500 | > 1000 | –
NC(=O)c1ccc(-c2cnc(Nc3ccc(N4CCCCC4)cc3)c3nccn23)cc1 [Compound 144] | > 1000 | 101 to 500 | –
NC(=O)c1ccc(Nc2ncc(-c3cn[nH]c3)n3ccnc23)cc1 [Compound 11] | 101 to 500 | > 1000 | –
NS(=O)(=O)c1ccc(Nc2ncc(-c3cn[nH]c3)n3ccnc23)cc1 [Compound 36] | 101 to 500 | > 1000 | –
O=C1NCc2cc(-c3cnc(Nc4ccc(N5CCOCC5)cc4)c4nccn34)sc21 [Compound 198, 2-[8-(4-Morpholin-4-yl-phenylamino)-imidazo[1,2-a]pyrazin-5-yl]-4,5-dihydro-thieno[2,3-c]pyrrol-6-one] | 101 to 500 | 101 to 500 | –
O=C(NCCc1cccnc1)c1ccc(Nc2ncc(-c3cn[nH]c3)n3ccnc23)cc1 [Compound 93] | 101 to 500 | > 1000 | –
O=C(c1ccc(Nc2ncc(-c3cn[nH]c3)n3ccnc23)cc1)N1CCOCC1 [Compound 45] | 501 to 1000 | > 1000 | –
NC(=O)c1cnc(-c2cnc(Nc3ccc(N4CCOCC4)cc3)c3nccn23)s1 [Compound 158, 2-[8-(4-Morpholin-4-yl-phenylamino)-imidazo[1,2-a]pyrazin-5-yl]-thiazole-5-carboxylic acid amide] | > 1000 | > 1000 | –
CCN(CC)CCNS(=O)(=O)c1ccc(Nc2ncc(-c3ccc(C(N)=O)cc3)n3ccnc23)cc1 [Compound 98] | > 1000 | 501 to 1000 | –
4-(8-{4-[1-(2,2,2-Trifluoroethyl)piperidin-4-yl]phenylamino}imidazo[1,2-a]pyrazin-5-yl)thiophene-2-carboxylic acid amide [Compound 192] | 1 to 100 | – | 501 to 1000
CNC(=O)c1ccc(-c2cnc(Nc3ccc(N4CCN(C)CC4)cc3)c3nccn23)cc1 [Compound 116] | > 1000 | > 1000 | –

Second part, led by results:

IC50 (MAPKAPK5) [nM] | Compound | EC50 (MMP1 expression by SFs; Homo sapiens, Fibroblast) [nM] | EC50 (MMP1 expression by SFs) [nM]
1 to 100 | CN1CCN(c2ccc(Nc3ncc(-c4cc(C(N)=O)co4)n4ccnc34)cc2)CC1 [Compound 151] | 101 to 500 | –
> 1000 | CN1CCN(c2ccc(Nc3ncc(-c4ccc(C(N)=O)cn4)n4ccnc34)cc2)CC1 [Compound 128] | > 1000 | –
101 to 500 | CS(=O)(=O)c1ccc(Nc2ncc(-c3cn[nH]c3)n3ccnc23)cc1 [Compound 71] | > 1000 | –
101 to 500 | CN1CCN(c2ccc(Nc3ncc(-c4cc(F)c(C(N)=O)c(F)c4)n4ccnc34)cc2)CC1 [Compound 140] | > 1000 | –
101 to 500 | C[C@@H]1CN(c2ccc(Nc3ncc(-c4cc(F)c(C(N)=O)c(F)c4)n4ccnc34)cc2)[C@@H](C)CN1C [Compound 181] | > 1000 | –
101 to 500 | O=C1NCc2cc(-c3cnc(Nc4cccnc4)c4nccn34)ccc21 [Compound 197] | 501 to 1000 | –
> 1000 | CN1CCN(c2ccc(Nc3ncc(-c4cn[nH]c4)n4ccnc34)cc2)CC1 [Compound 14] | > 1000 | –
101 to 500 | CCNCCNC(=O)c1ccc(Nc2ncc(-c3cn[nH]c3)n3ccnc23)cc1 [Compound 56] | > 1000 | –
> 1000 | CN(C)Cc1cn(-c2ccc(Nc3ncc(-c4ccc(C(N)=O)cc4)n4ccnc34)cc2)nn1 [Compound 166, 4-{8-[4-(4-Dimethylaminomethyl-[1,2,3]triazol-1-yl)-phenylamino]-imidazo[1,2-a]pyrazin-5-yl}-benzamide] | > 1000 | –
> 1000 | Cn1cnnc1-c1ccc(Nc2ncc(-c3ccc(C(N)=O)cc3)n3ccnc23)cc1 [Compound 141] | 501 to 1000 | –
101 to 500 | CC(C)N1CCN(c2ccc(Nc3ncc(-c4coc(C(N)=O)c4)n4ccnc34)cc2)CC1 [Compound 204, 4-{8-[4-(4-Isopropyl-piperazin-1-yl)-phenylamino]-imidazo[1,2-a]pyrazin-5-yl}-furan-2-carboxylic acid amide] | 501 to 1000 | –
